Test results taken from PubChem BioAssay (NCI).
Where “and” joins values, the source holds several entries; their conditions need not be identical. Identical values can stand only once.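 Exposure lasted 48 hours, with cells grown in 96-well plates and compounds tested at five concentrations. GI50 marks 50% less growth. The concentration for full growth arrest is given as TGI.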

Assays:
Assay in all cases: DTP human tumour cell line panel, 48 h
[1] = test system: EKVX NSCLC
[2] = test system: UO-31 renal
[3] = test system: OVCAR-5 ovarian
[4] = test system: SN12C renal
[5] = test system: SNB-19 CNS
[6] = test system: SK-OV-3 ovarian
[7] = test system: M14 melanoma
[8] = test system: HS 578T breast
[9] = test system: PC-3 prostate
[10] = test system: RXF 393 renal

Structure (SMILES)	GI50 [1]	TGI [1]	GI50 [2]	TGI [2]	GI50 [3]	TGI [3]	GI50 [4]	TGI [4]	GI50 [5]	TGI [5]	GI50 [6]	TGI [6]	GI50 [7]	TGI [7]	GI50 [8]	TGI [8]	GI50 [9]	TGI [9]	GI50 [10]	TGI [10]
C=C1C(=O)O[C@H]2[C@H]1CC/C(COC(=O)NCCc1c[nH]c3ccc(OC)cc13)=C\CC[C@@]1(C)O[C@@H]21	1.94 µM	5.45 µM	1.46 µM	2.77 µM	1.82 µM	4 µM	1.81 µM	3.8 µM	10 µM	21.9 µM	14.1 µM	27.2 µM	1.62 µM	3.51 µM	6.42 µM	36.9 µM	1.99 µM	4.6 µM	1.46 µM	2.92 µM
C=CCC1(O)c2cccc(NCCO)c2C(=O)c2c(NCCO)cccc21	> 100 µM	> 100 µM	95.7 µM	> 100 µM	> 100 µM	> 100 µM	> 100 µM	> 100 µM	> 100 µM	> 100 µM	> 100 µM	> 100 µM	> 100 µM	> 100 µM	> 100 µM	> 100 µM	> 100 µM	> 100 µM	> 100 µM	> 100 µM
O=C(O)c1cc2cc(OCc3ccccc3)c(OCc3ccccc3)cc2[nH]1	17.8 µM	38.9 µM	13.8 µM	27.6 µM	29.1 µM	87.9 µM	33.1 µM	> 100 µM	32.1 µM	> 100 µM	29.5 µM	> 100 µM	24.2 µM	60.8 µM	22 µM	64.5 µM	23 µM	68.5 µM	14.6 µM	30.4 µM
Cc1ccc(SC2=CC(=O)c3nc4ccccc4c4ccnc2c34)cc1	35 µM	> 100 µM	15.5 µM	29.7 µM	> 79.9 µM	> 100 µM	66.6 µM	> 100 µM	> 71.2 µM	> 100 µM	> 100 µM	> 100 µM	51.9 µM	> 100 µM	43.8 µM	> 95 µM	22 µM	71.2 µM	21.9 µM	50 µM
O=C(O)c1cc(N=Cc2ccccc2O)cc(C(=O)O)c1	–	> 100 µM	–	> 100 µM	–	> 100 µM	–	> 100 µM	–	> 100 µM	–	> 100 µM	–	> 100 µM	–	> 100 µM	–	> 100 µM	–	> 100 µM
COC(=O)C1(F)C(=O)NC(=O)NC1O (stereo not given)	–	> 100 µM	–	> 100 µM	–	> 100 µM	–	> 100 µM	–	> 100 µM	–	> 100 µM	–	> 100 µM	–	> 100 µM	–	> 100 µM	–	> 100 µM
COc1cccc2c1C(=O)c1c(O)c3c(c(O)c1C2=O)C[C@@](O)(C(=O)CO)C[C@@H]3OC1C[C@H](N)[C@H](O)[C@H](C)O1 (stereo not given in full)	0.201 µM	5.28 µM	0.152 µM	1.14 µM	0.214 µM	14.5 µM	0.0253 µM	7.44 µM	0.0246 µM	6.33 µM	0.107 µM	10.9 µM	0.0846 µM	0.404 µM	0.132 µM	–	0.112 µM	1.22 µM	0.0751 µM	0.25 µM
CN1CCN(Cc2ccc(NC(=O)c3ccc(C#Cc4c(N)ncc5ccc(F)cc45)cc3)cc2C(F)(F)F)CC1	0.94 µM	1.85 µM	0.967 µM	2.26 µM	0.993 µM	1.85 µM	0.913 µM	1.78 µM	1.09 µM	1.91 µM	2.2 µM	7.63 µM	0.919 µM	1.71 µM	1.05 µM	3.65 µM	0.834 µM	1.61 µM	0.835 µM	1.6 µM
O=Nc1ccc2ccccc2c1O	8.61 µM	22.6 µM	4.99 µM	21.7 µM	14.1 µM	30.4 µM	1.9 µM	5.26 µM	15 µM	28.4 µM	19.9 µM	45.5 µM	5.07 µM	16.5 µM	1.56 µM	5.07 µM	2.61 µM	11.9 µM	14 µM	27.3 µM
COc1cc(/C=C2\CCC(CN(C)C)C2=O)ccc1OC(=O)c1ccccc1 (stereo not given)	–	28.1 µM	–	29.8 µM	–	33.8 µM	–	25.1 µM	–	25.5 µM	–	52.4 µM	–	22.9 µM	–	74.8 µM	–	30 µM	–	15.4 µM
O=C(Nc1ccc(Cl)cc1)c1cc(-c2ccc(Cl)cc2)c2sc(=O)[nH]c2n1	1.63 µM	11.7 µM	1.59 µM	5.36 µM	3.41 µM	29.3 µM	2.12 µM	20.1 µM	3.64 µM	> 100 µM	2.08 µM	7.47 µM	2.75 µM	10.3 µM	3.04 µM	21.5 µM	1.66 µM	12.2 µM	2.77 µM	7.42 µM
C/C(=N\N=C(/[Se])N1CC2CCC(CC2)C1)c1ccccn1	–	2.06 µM	–	1.9 µM	–	2.51 µM	–	2.57 µM	–	4.06 µM	–	2.09 µM	–	0.701 µM	–	7.77 µM	–	1.26 µM	–	0.359 µM
O=C(O)c1ccc(N/C=C2\C(=O)c3ccccc3OC2O)cc1O (stereo not given)	23.9 µg/mL	82.5 µg/mL	6.68 µg/mL	36.4 µg/mL	31.2 µg/mL	78.5 µg/mL	20.2 µg/mL	58.8 µg/mL	18.4 µg/mL	72.4 µg/mL	28.8 µg/mL	74.6 µg/mL	21.5 µg/mL	47.5 µg/mL	11.2 µg/mL	76.5 µg/mL	31.6 µg/mL	107 µg/mL	12.6 µg/mL	34.5 µg/mL
O=C(Cc1cccc(OC(F)(F)F)c1)Nc1ccc(CCCCc2nnc(NC(=O)Cc3ccccn3)s2)nn1	13.3 µM	68.7 µM	2.85 µM	28.9 µM	> 100 µM	> 100 µM	18.5 µM	> 100 µM	29.4 µM	> 100 µM	11.6 µM	25.1 µM	36.3 µM	> 100 µM	13.8 µM	40.2 µM	18.3 µM	> 100 µM	4.34 µM	22.7 µM
c1ccc(-n2nnnc2-c2cccc3ccccc23)cc1	2.42 µM	> 100 µM	2.16 µM	61.1 µM	3.27 µM	> 100 µM	1.33 µM	> 100 µM	0.859 µM	> 100 µM	0.908 µM	13.5 µM	0.365 µM	8.81 µM	1.36 µM	> 100 µM	1.14 µM	> 100 µM	1.01 µM	> 20.1 µM
NS(=O)(=O)c1cccc(N=Cc2c(O)[nH]c3ccccc23)c1	> 25 µM	> 25 µM	> 22.7 µM	> 25 µM	> 25 µM	> 25 µM	> 25 µM	> 25 µM	> 25 µM	> 25 µM	> 18.5 µM	> 25 µM	> 25 µM	> 25 µM	> 25 µM	> 25 µM	> 25 µM	> 25 µM	> 25 µM	> 25 µM
Cc1cc(C)c(O)c(CN(C)Cc2cc(Cl)cc(Cl)c2O)c1	4.52 µM	30.7 µM	1.64 µM	6.58 µM	6.12 µM	20.5 µM	4.81 µM	20.4 µM	4.82 µM	20.8 µM	6.48 µM	33 µM	9.17 µM	22.8 µM	5.41 µM	32.8 µM	6.97 µM	42.3 µM	7.34 µM	23.6 µM
COc1cc2c[n+](C)c3c4ccccc4ccc3c2cc1OC (tested in a mixture with another compound)	1.47 µM	41.8 µM	–	> 100 µM	4.67 µM	52.7 µM	1.07 µM	5.58 µM and 17.7 µM	0.964 µM	25.1 µM	–	51.2 µM	8.31 µM	51.9 µM	3.35 µM	18.4 µM	–	20.1 µM	–	54.4 µM
O=c1[nH]cnc2[nH]ncc12	785 µM	> 5000 µM	> 64.9 µM and 525 µM	> 5000 µM	486 µM	> 1550 µM	485 µM	> 5000 µM	> 5000 µM	> 5000 µM	> 85.9 µM and 111 µM	> 4080 µM	234 µM	> 5000 µM	2540 µM	> 5000 µM	253 µM	> 5000 µM	266 µM	> 5000 µM
COc1ccccc1/C=N\N=C(N/N=C/c1ccccc1OC)N/N=C/c1ccccc1OC	2.68 µM	> 100 µM	1.81 µM	7.25 µM	4 µM	> 100 µM	3.35 µM	19.7 µM	3.37 µM	> 100 µM	2.68 µM	8.32 µM	2.99 µM	9.96 µM	2.88 µM	53.2 µM	2.77 µM	> 100 µM	5.01 µM	> 100 µM
C=CC1CC12C(=O)C1OC2(C)C2C(=O)c3c(O)ccc(O)c3C(=O)C12 (stereo not given)	7.46 µM	28.2 µM	7.83 µM	25.6 µM	5.69 µM	12 µM	3.2 µM	11.6 µM	5.35 µM	14.5 µM	11.9 µM	41.2 µM	3.58 µM	14.7 µM	7.44 µM	19.3 µM	4.72 µM	15.3 µM	2.11 µM	5.3 µM
CC(C)NC(=O)OCc1c(COC(=O)NC(C)C)c(-c2ccc(Cl)cc2)n2c1CCC2	4.09 µM	32.9 µM	2.05 µM	6.8 µM	3.3 µM	13.5 µM	2.29 µM	15.4 µM	4.65 µM	21.7 µM	2.92 µM	12.5 µM	2.99 µM	11.1 µM	2.91 µM	11.8 µM	3.32 µM	25.2 µM	1.85 µM	4.32 µM
COc1ccccc1C#Cc1ccccc1C#CCCCCCC#Cc1ccccc1C#Cc1ccccc1OC	> 100 µM	> 100 µM	> 100 µM	> 100 µM	> 100 µM	> 100 µM	> 100 µM	> 100 µM	> 100 µM	> 100 µM	> 100 µM	> 100 µM	48.7 µM	> 100 µM	> 100 µM	> 100 µM	> 100 µM	> 100 µM	26.6 µM	> 100 µM
O=C(c1ccco1)c1c(C(F)(F)F)n([O-])c2ccccc2[n+]1=O	0.226 µM	0.741 µM	0.755 µM	2.03 µM	3.68 µM	13.4 µM	0.618 µM	3.1 µM	3.34 µM	22.3 µM	6.69 µM	21 µM	0.613 µM	1.91 µM	1.75 µM	13.1 µM	0.338 µM	3.61 µM	1.43 µM	9.45 µM
Cc1cc(Cc2cc(C)cc(C(C)(C)C)c2O)c(O)c(C(C)(C)C)c1	2.81 µM	12.1 µM	4.58 µM	19 µM	14.4 µM	27.5 µM	11.9 µM	24.1 µM	13.1 µM	25.8 µM	11.9 µM	24.2 µM	11.1 µM	23 µM	11.2 µM	29.2 µM	5.15 µM	18.6 µM	6.37 µM	18.9 µM
CC(=O)O/N=C1/C(c2c(O)[nH]c3cc(Br)ccc23)=Nc2ccccc21	1.37 µM	2.95 µM	0.653 µM	2.4 µM	2.51 µM	4.17 µM	0.873 µM	2.58 µM	4.26 µM	11.1 µM	0.421 µM	1.96 µM	2 µM	4.88 µM	0.0698 µM	1.79 µM	1.33 µM	3.51 µM	0.385 µM	1.61 µM
